Values after ≈ are worked out from the molar mass of the structure shown.
Columns and labels:
[1] = Aqueous solubility of the compound; assay type: physicochemical; conditions: water
[2] = Binding affinity to beta-cyclodextrin in aqueous solution after 72 hrs by phase-solubility measurements; assay type: ADME; conditions: buffer

Row | Structure (SMILES) | solubility [1] [mM] | K [2] [M⁻¹]
1 | COc1cc2c(cc1OC)[C@@H](c1ccc(Cl)cc1)N(C(C)=O)CC2 | 5 (≈ 1730 µg/mL) | 15889
2 | COc1cc2c(cc1OC)C(c1ccc(Cl)cc1)N(C(C)=O)CC2 (racemic) | 3 (≈ 1040 µg/mL) | 1079

Reference: ChEMBL document CHEMBL1152121, “Improvement of water solubility of non-competitive AMPA receptor antagonists by complexation with beta-cyclodextrin” (Bioorg Med Chem, 2008)
